Assay results: patent EP4324461A1, “(E)-N-CINAMOYLAMINOALKANOLES WITH MELANOGENESIS INHIBITORY ACTIVITY” (UNIWERSYTET JAGIELLONSKI, priority 2022, dated 2024)
Read-outs that look alike come from different tables or passages of the source.

Tests used:
[1] = Lipophilicity coefficient RM0 by reversed phase thin layer chromatography; format: physicochemical; details: RP-18 TLC, methanol / 100 mM phosphate buffer pH = 7.4
Summary of the method: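 Reversed-phase TLC on RP-18 F254 silica, with methanol/100 mM phosphate buffer pH 7.4 mobile phases of 95–65% (v/v) methanol, at room temperature, in duplicate. Spots were visualized under UV at 254 nm. RM = log(1/Rf − 1) was plotted linearly against methanol content to derive RM0.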

[2] = system: B16-F10 murine melanoma cell line; assay: Cytotoxicity in B16-F10 cells (MTT); format: cell-based; details: 48 h
Summary of the method: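 Cells in F10-Ham with 1% FBS exposed to various compound concentrations for 48 h after 24 h pre-culture. MTT read-out: formazan dissolved in DMSO, absorbance at 570 nm. Viability expressed as percent of DMSO control (AT/AC×100).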

Fibroblasts (BJ) = assay: Safety, LDH test in fibroblasts; format: cell-based; details: 48 hours, positive control Triton X-100
Protocol: In order to test the safety of the compounds, both normal human cells were used: keratinocytes (HaCaT), fibroblasts (BJ), primary melanocytes that occur in the skin, as well as human cancer cells: the hepatocarcinoma line HepG2 and the neuroblastoma line SH-SY5Y, which are considered a model for the assessment of hepatocytotoxicity and neurocytotoxicity. The concentrations of the tested compounds in the range of 250-100 µM were used in the studies. The cell lines used in the research were purchased from the American Type Culture Collection (ATCC) and were cultured in media recommended by the manufacturer with the addition of FBS and antibiotics in an incubator ensuring appropriate culture conditions, i.e. humidity, temperature and CO2 concentration. Cells were seeded into multiwell plates and incubated with the test compounds for 48 hours. After this time, MTT and LDH tests were performed to assess cell viability. The MTT test is based on the ability to transform the substrate: [3-(4,5-dimethyl-2-thiazolyl)-2,5-diphenyl-2H-tetrazolium bromide into a colored product only by living cells. The absorbance at 570 nm, which corresponds to the absorption maximum for the product, is directly proportional to cell viability. The LDH test is based on testing the activity of the enzyme lactate dehydrogenase in the culture medium, which is released from cells as a result of damage to the cell membrane, e.g. as a result of cell death. Triton X-100 was used as a positive control in the test. The determination is colorimetric, the substrate is transformed by the released enzyme into a colored product, an increase in absorbance indicates a larger amount of the released enzyme, and thus confirms greater damage to cell membranes. Tables 7 and 8 present the results obtained, which correspond to the viability of cells incubated with the compounds in relation to the viability of cells constituting a control sample, i.e. incubated with the solvent (DMSO) at the same concentration as in the case of the groups tested in the MTT test or in relation to the results obtained for the Triton X-100 positive control in the LDH test. They indicate that the compounds are safe at the concentrations tested. Table 7. Viability of tested normal human cell lines: keratinocytes (HaCaT), fibroblasts (BJ) and primary melanocytes after incubation with the tested compounds - determination in the MTT test (% of solvent control ± SD) and LDH (percentage of positive control - Triton X-100.

tyrosinase from mushroom = assay: Inhibition of commercial mushroom tyrosinase (L-DOPA or L-tyrosine substrate); format: biochemical
Summary of the method: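 Tyrosinase (1U/well or 3U/well) in 50 mM phosphate buffer pH 6.8 with compound at final 500, 250 or 125 µM; L-DOPA (diphenolase) or L-tyrosine (monophenolase) added in separate runs. Absorbance at 475 nm after 25 min; % inhibition versus DMSO control.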

[3] = L-DOPA, read-out: Tyrosinase inhibition with L-DOPA, IC50
[4] = L-tyrosine, read-out: Tyrosinase inhibition with L-tyrosine, IC50

O=C(/C=C/c1ccc(Cl)cc1)NCCCCCO [Compound A-111, (2E)-3-(4-chlorophenyl)-N-(5-hydroxypentyl)prop-2-enamide]
RM0 [1]: 2.79 | Cytotoxicity study in B16F10 cells % viability ([2]; 150 µM): 88.2% | Cytotoxicity study in B16F10 cells % viability ([2]; 200 µM): 95.6% | Cytotoxicity study in B16F10 cells % viability ([2]; 250 µM): 89.7% | Fibroblasts (BJ) LDH (Fibroblasts (BJ); 100 µM): 5.25 percentage of positive control | Fibroblasts (BJ) LDH (Fibroblasts (BJ); 150 µM): 5.37 percentage of positive control | Fibroblasts (BJ) LDH (Fibroblasts (BJ); 200 µM): 8.43 percentage of positive control | Fibroblasts (BJ) LDH (Fibroblasts (BJ); 250 µM): 14.90 percentage of positive control | Tyrosinase inhibition with L-DOPA [%] (tyrosinase from mushroom; L-DOPA, 250 µM): 59.94±1.56% (250 µM) | IC50 (tyrosinase from mushroom; [3]): 147 µM | Tyrosinase inhibition with L-tyrosine [%] (tyrosinase from mushroom; L-tyrosine): 88.98±0.98% (500 µM) | IC50 (tyrosinase from mushroom; [4]): 37 µM

O=C(/C=C/c1ccccc1)NCCCCCO [Compound A-133, (2E)-N-(5-hydroxypentyl)-3-phenylprop-2-enamide]
RM0 [1]: 2.15 | Cytotoxicity study in B16F10 cells % viability ([2]; 150 µM): 101.7% | Cytotoxicity study in B16F10 cells % viability ([2]; 200 µM): 94.9% | Cytotoxicity study in B16F10 cells % viability ([2]; 250 µM): 95.6% | Fibroblasts (BJ) LDH (Fibroblasts (BJ); 100 µM): 5.00 percentage of positive control | Fibroblasts (BJ) LDH (Fibroblasts (BJ); 150 µM): 4.47 percentage of positive control | Fibroblasts (BJ) LDH (Fibroblasts (BJ); 200 µM): 14.72 percentage of positive control | Fibroblasts (BJ) LDH (Fibroblasts (BJ); 250 µM): 28.31 percentage of positive control | Tyrosinase inhibition with L-DOPA [%] (tyrosinase from mushroom; L-DOPA): 47.96±1.83% (500 µM) | IC50 (tyrosinase from mushroom; [3]): 523 µM | Tyrosinase inhibition with L-tyrosine [%] (tyrosinase from mushroom; L-tyrosine): 58.56±4.58% (500 µM) | IC50 (tyrosinase from mushroom; [4]): 450 µM

O=C(/C=C/c1ccc(Cl)cc1)NCCCO [H-330/21, (2E)-3-(4-chlorophenyl)-N-(3-hydroxypropyl)prop-2-enamide]
RM0 [1]: 1.94 | Cytotoxicity study in B16F10 cells % viability ([2]; 150 µM): 78.6% | Cytotoxicity study in B16F10 cells % viability ([2]; 200 µM): 82.9% | Cytotoxicity study in B16F10 cells % viability ([2]; 250 µM): 83.9% | Fibroblasts (BJ) LDH (Fibroblasts (BJ); 100 µM): 4.74 percentage of positive control | Fibroblasts (BJ) LDH (Fibroblasts (BJ); 150 µM): 6.50 percentage of positive control | Fibroblasts (BJ) LDH (Fibroblasts (BJ); 200 µM): 14.25 percentage of positive control | Fibroblasts (BJ) LDH (Fibroblasts (BJ); 250 µM): 28.74 percentage of positive control | Tyrosinase inhibition with L-DOPA [%] (tyrosinase from mushroom; L-DOPA): 55.32±1.39% (500 µM) | IC50 (tyrosinase from mushroom; [3]): 265 µM | Tyrosinase inhibition with L-tyrosine [%] (tyrosinase from mushroom; L-tyrosine): 82.49±0.65% (500 µM) | IC50 (tyrosinase from mushroom; [4]): 106 µM

Cc1ccc(/C=C/C(=O)NCCCCCO)cc1 [H-415/21, (2E)-N-(5-hydroxypentyl)-3-(4-methylphenyl)prop-2-enamide]
RM0 [1]: 2.49 | Cytotoxicity study in B16F10 cells % viability ([2]; 150 µM): 85.2% | Cytotoxicity study in B16F10 cells % viability ([2]; 200 µM): 90.3% | Cytotoxicity study in B16F10 cells % viability ([2]; 250 µM): 75.7% | Fibroblasts (BJ) LDH (Fibroblasts (BJ); 100 µM): 8.81 percentage of positive control | Fibroblasts (BJ) LDH (Fibroblasts (BJ); 150 µM): 8.75 percentage of positive control | Fibroblasts (BJ) LDH (Fibroblasts (BJ); 200 µM): 9.82 percentage of positive control | Fibroblasts (BJ) LDH (Fibroblasts (BJ); 250 µM): 16.63 percentage of positive control | Tyrosinase inhibition with L-DOPA [%] (tyrosinase from mushroom; L-DOPA): 30.43±0.88% (500 µM) | Tyrosinase inhibition with L-tyrosine [%] (tyrosinase from mushroom; L-tyrosine): 25.04±5.67% (500 µM)

O=C(/C=C/c1ccccc1)NCCCCCCO [H-425/21, (E)-N-(6-hydroxyhexyl)cinnamic acid amide]
RM0 [1]: 2.40 | Cytotoxicity study in B16F10 cells % viability ([2]; 150 µM): 109.2% | Cytotoxicity study in B16F10 cells % viability ([2]; 200 µM): 98.4% | Cytotoxicity study in B16F10 cells % viability ([2]; 250 µM): 86.9% | Tyrosinase inhibition with L-DOPA [%] (tyrosinase from mushroom; L-DOPA): 34.63±2.46% (500 µM) | Tyrosinase inhibition with L-tyrosine [%] (tyrosinase from mushroom; L-tyrosine): 44.61±5.99% (500 µM) | IC50 (tyrosinase from mushroom; [4]): 764 µM

O=C(/C=C/c1ccc(Cl)cc1)NCCO [H-427/21, (2E)-3-(4-chlorophenyl)-N-(2-hydroxyethyl)prop-2-enamide]
RM0 [1]: 1.93 | Cytotoxicity study in B16F10 cells % viability ([2]; 150 µM): 73.7% | Cytotoxicity study in B16F10 cells % viability ([2]; 200 µM): 80.2% | Cytotoxicity study in B16F10 cells % viability ([2]; 250 µM): 77.8% | Fibroblasts (BJ) LDH (Fibroblasts (BJ); 100 µM): 2.75 percentage of positive control | Fibroblasts (BJ) LDH (Fibroblasts (BJ); 150 µM): 5.92 percentage of positive control | Fibroblasts (BJ) LDH (Fibroblasts (BJ); 200 µM): 9.00 percentage of positive control | Fibroblasts (BJ) LDH (Fibroblasts (BJ); 250 µM): 17.32 percentage of positive control | Tyrosinase inhibition with L-DOPA [%] (tyrosinase from mushroom; L-DOPA): 55.77±0.77% (500 µM) | IC50 (tyrosinase from mushroom; [3]): 278 µM | Tyrosinase inhibition with L-tyrosine [%] (tyrosinase from mushroom; L-tyrosine): 67.45±2.66% (500 µM) | IC50 (tyrosinase from mushroom; [4]): 196 µM
